Laboratory results published in doi:10.1101/2022.12.19.520966v1 (biorxiv, 2022).
Where a chain is given by its changes, count along the chain named.

How the values were obtained:
Experiment in all cases: HTRF IP1 accumulation
Type in all cases: cell-based
[1] = target: T1, T1R2/T1R3 (human sweet taste receptor) (Homo sapiens, UniProt Q7RTX0+Q8TE23, Q8TE23:R317G/Q8TE23:I486V); conditions: agonist; Galpha16gus44 co-transfected; 0.05 M LiCl, 5 min exposure
T1 sequence (Q8TE23 20-839 R317G/I486V): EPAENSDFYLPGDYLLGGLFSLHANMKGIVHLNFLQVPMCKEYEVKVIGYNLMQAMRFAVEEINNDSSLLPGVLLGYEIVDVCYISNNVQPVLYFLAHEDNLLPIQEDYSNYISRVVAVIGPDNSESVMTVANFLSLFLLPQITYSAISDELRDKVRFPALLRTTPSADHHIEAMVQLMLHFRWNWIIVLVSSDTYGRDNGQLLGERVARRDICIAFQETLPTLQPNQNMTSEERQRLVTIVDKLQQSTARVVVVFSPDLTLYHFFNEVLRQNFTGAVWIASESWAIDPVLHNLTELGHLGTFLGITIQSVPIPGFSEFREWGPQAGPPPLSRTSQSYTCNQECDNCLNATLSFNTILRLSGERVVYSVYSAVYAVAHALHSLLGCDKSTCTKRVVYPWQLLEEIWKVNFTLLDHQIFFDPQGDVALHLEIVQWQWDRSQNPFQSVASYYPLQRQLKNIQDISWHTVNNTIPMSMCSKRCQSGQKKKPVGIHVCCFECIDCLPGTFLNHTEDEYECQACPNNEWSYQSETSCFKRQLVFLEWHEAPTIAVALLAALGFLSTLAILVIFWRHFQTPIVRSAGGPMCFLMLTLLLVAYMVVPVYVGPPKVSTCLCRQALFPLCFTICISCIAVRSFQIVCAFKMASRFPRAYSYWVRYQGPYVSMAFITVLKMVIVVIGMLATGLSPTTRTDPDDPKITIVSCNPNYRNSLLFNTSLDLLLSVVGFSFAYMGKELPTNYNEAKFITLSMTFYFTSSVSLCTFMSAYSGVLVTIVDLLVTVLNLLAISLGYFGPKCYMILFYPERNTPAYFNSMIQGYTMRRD
T1 sequence (Q7RTX0 21-852): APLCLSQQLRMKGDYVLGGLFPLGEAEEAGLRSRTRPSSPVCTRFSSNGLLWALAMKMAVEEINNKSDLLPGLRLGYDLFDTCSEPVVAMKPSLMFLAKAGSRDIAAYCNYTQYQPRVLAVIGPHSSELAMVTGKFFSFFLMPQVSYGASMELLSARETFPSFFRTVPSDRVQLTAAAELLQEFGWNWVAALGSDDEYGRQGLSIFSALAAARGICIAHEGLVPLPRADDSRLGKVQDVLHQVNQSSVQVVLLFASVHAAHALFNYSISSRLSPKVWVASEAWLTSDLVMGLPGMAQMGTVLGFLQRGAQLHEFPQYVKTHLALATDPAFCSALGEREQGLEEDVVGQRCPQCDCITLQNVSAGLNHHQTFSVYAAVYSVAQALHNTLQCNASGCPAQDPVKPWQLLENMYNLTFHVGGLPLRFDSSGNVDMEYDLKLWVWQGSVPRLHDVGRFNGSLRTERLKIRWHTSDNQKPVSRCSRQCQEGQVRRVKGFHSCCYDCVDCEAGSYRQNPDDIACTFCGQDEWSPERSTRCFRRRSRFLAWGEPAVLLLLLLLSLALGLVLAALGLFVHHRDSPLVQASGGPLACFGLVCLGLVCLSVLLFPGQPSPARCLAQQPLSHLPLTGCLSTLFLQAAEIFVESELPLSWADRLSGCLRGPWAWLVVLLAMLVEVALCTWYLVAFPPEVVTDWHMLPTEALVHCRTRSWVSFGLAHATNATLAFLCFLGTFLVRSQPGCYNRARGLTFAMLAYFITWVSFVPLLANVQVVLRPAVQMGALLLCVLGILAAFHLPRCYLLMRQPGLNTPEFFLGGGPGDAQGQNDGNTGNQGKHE

[2] = target: T2, T1R2/T1R3 (human sweet taste receptor) (Homo sapiens, UniProt Q7RTX0+Q8TE23); conditions: agonist; Galpha16gus44 co-transfected; 0.05 M LiCl, 5 min exposure
T2 sequence (Q8TE23 20-839): T1 sequence (Q8TE23 20-839 R317G/I486V) with G298R, V467I
T2 sequence (Q7RTX0 21-852): T1 sequence (Q7RTX0 21-852)

[3] = target: T2, T1R2/T1R3 (human sweet taste receptor); conditions: agonist; Galpha16gus44 co-transfected; 0.05 M LiCl, 5 min exposure; unreliable

Row | EC50 [1] [mM] | EC50 [2] [mM] | Emax [3] [%] | Structure (SMILES)
1 | ~15 | 2 |  | OC[C@@H]1OC(O)[C@@H](O)[C@H](O)[C@H]1O (stereo partly drawn) [L-glucose]
2 |  |  | 100 | OC[C@H]1OC(O)[C@H](O)[C@@H](O)[C@@H]1O (stereo partly drawn) [D-glucose]
